Laboratory results published in patent publication US9221822B2, “Thiazolopyrimidine modulators as immunosuppressive agents” (Katholieke Universiteit Leuven, K.U.Leuven R&D, priority 2009, dated 2015).

System: Human peripheral blood mononuclear cells (PBMCs) as Responder cells, RPMI 1788 Stimulator cells
Experiment: Mixed Lymphocyte Reaction (MLR) test
Assay type: cell-based
Conditions: Homo sapiens, RPMI-1788, lowest concentration giving 50% inhibition of the MLR; 6 days coculture, 3H-thymidine incorporation
Method: Human peripheral blood mononuclear cells (PBMCs) were isolated from buffy coats, obtained from healthy blood donors by Ficoll (Lymphoprep, Axis-Shield PoC AS, Oslo, Norway) density-gradient centrifugation. The cells at the Ficoll-plasma interface were washed three times and used as “Responder” cells. RPMI 1788 (ATCC, N^o CCL-156) cells were treated with mitomycin C (Kyowa, Nycomed, Brussel, Belgium) and used as “Stimulator” cells. Responder cells (0.12×10^6), Stimulator cells (0.045×10^6) and compounds (in different concentrations) were cocultured for 6 days in RPMI 1640 medium (BioWhittaker, Lonza, Belgium) supplemented with 10% fetal calf serum, 100 U/ml Geneticin (Gibco, LifeTechnologies, UK). Cells were cultured in triplicate in flat-bottomed 96-well microtiter tissue culture plates (TTP, Switzerland). After 5 days, cells were pulsed with 1 μCi of methyl-^3H thymidine (MP Biomedicals, USA), harvested 18 h later on glass filter paper and counted. Proliferation values were expressed as counts per minute (cpm), and converted to % inhibition with respect to a blank MLR test (identical but without added compound). […]

SMILES | IC50
Nc1nc(N2CC[C@@H](NC(=O)c3ccc(Cl)cc3)C2)c2cc(-c3ccc(F)cc3)sc2n1 [Example 341, (R)—N-(1-(2-amino-6-(4-fluorophenyl)thieno[2,3-d]pyrimidin-4-yl)pyrrolidin-3-yl)-4-chlorobenzamide] | 7230 nM
CCCCCN1CCN(c2nc(N)nc3sc(-c4ccc(F)cc4)nc23)CC1 [Example 37, 2-(4-fluorophenyl)-7-(4-pentylpiperazin-1-yl)thiazolo[5,4-d]pyrimidin-5-amine] | > 10000 nM
Nc1nc(N2CC[C@@H](NC(=O)c3ccc(Cl)cc3)C2)c2nc(CCc3ccc(F)cc3)sc2n1 [Example 144, 5-amino-2-[2-(4-fluorophenyl)ethyl]-7-(3-(R)-(4-chlorobenzoylamino)-pyrrolidin-1-yl)-thiazolo[5,4-d]pyrimidine] | 5130 nM
Nc1nc(N2CCN(C(=O)COc3ccc(Cl)cc3)CC2)c2nc(CCCCc3ccc(F)cc3)sc2n1 [Example 292, 1-(4-(5-amino-2-(4-(4-fluorophenyl)butyl)thiazolo[5,4-d]pyrimidin-7-yl)piperazin-1-yl)-2-(4-chlorophenoxy)ethanone] | 920 nM
Nc1nc(N2CCN(CCOc3ccccc3)CC2)c2nc(CCc3ccc(F)cc3)oc2n1 [Example 197, 5-amino-2-[2-(4-fluorophenyl)ethyl]-7-(4-(2-phenoxyethyl)piperazin-1-yl)-oxazolo[5,4-d]pyrimidine] | 1950 nM
CCCSc1nc2c(N3CCN(C(=O)COc4ccc(Cl)cc4)CC3)nc(N)nc2[nH]1 [Example 425, 1-(4-(2-amino-8-(propylthio)-9H-purin-6-yl)piperazin-1-yl)-2-(4-chlorophenoxy)ethanone] | 1020 nM
Nc1nc(NC2CCCN(C(=O)OCc3ccccc3)C2)c2nc(CCc3ccc(F)cc3)sc2n1 (stereo not drawn) [Example 145, 5-amino-2-[2-(4-fluorophenyl)ethyl]-7-(1-benzyloxycarbonylpiperidin-3-ylamino)-thiazolo[5,4-d]pyrimidine] | 4350 nM
Nc1nc(N2CCN(C(=O)c3cccnc3)CC2)c2cc(-c3ccc(F)cc3)sc2n1 [Example 346, (4-(2-amino-6-(4-fluorophenyl)thieno[2,3-d]pyrimidin-4-yl)piperazin-1-yl)(pyridin-3-yl)methanone] | > 10000 nM
Cc1cccc(N2CCN(c3nc(N)nc4sc(-c5ccc(F)cc5)nc34)CC2)c1 [Example 35, 2-(4-fluorophenyl)-7-(4-m-tolylpiperazin-1-yl)-thiazolo[5,4-d]pyrimidin-5-amine] | > 10000 nM
Cc1ccc(CCc2nc3c(N4CCN(C(=O)COc5ccc(Br)cc5)CC4)nc(N)nc3s2)cc1 [Example 258, 1-(4-(5-amino-2-(4-methylphenethyl)thiazolo[5,4-d]pyrimidin-7-yl)piperazin-1-yl)-2-(4-bromophenoxy)ethanone] | 930 nM
COc1cccc(-c2nc3c(N4CCN(C(=O)COc5ccc(Cl)cc5)CC4)nc(N)nc3s2)c1 [Example 124, 5-amino-7-[4-(4-chlorophenoxyacetyl)piperazin-1-yl]-2-(3-methoxyphenyl)thiazolo[5,4-d]pyrimidine] | 120 nM
Nc1nc(N2CCN(C(=O)COc3ccc(Cl)cc3)CC2)c2nc(CCc3cccs3)sc2n1 [Example 154, 5-amino-2-(2-thiophen-2-ylethyl)-7-(4-[2-(4-chloro-phenoxy)acetyl]piperazin-1-yl)thiazolo[5,4-d]pyrimidine] | 790 nM
Nc1nc(N2CCN(C(=O)c3ccc(Cl)cc3)CC2)c2nc(CCc3ccc(F)cc3)sc2n1 [Example 135, 5-amino-2-[2-(4-fluorophenyl)ethyl]-7-[4-(4-chlorobenzoyl)piperazin-1-yl]-thiazolo[5,4-d]pyrimidine] | > 10000 nM
Nc1nc(N2CCN(C(=O)COc3ccc(Cl)cc3)CC2)c2nc(-c3ccccc3)sc2n1 [Example 215, 1-(4-(5-amino-2-phenylthiazolo[5,4-d]pyrimidin-7-yl)piperazin-1-yl)-2-(4-chlorophenoxy)ethanone] | 116 nM
Nc1nc(N2CCN(C(=O)COc3ccccc3)CC2)c2nc(-c3ccc(F)cc3)sc2n1 [Example 130, 5-amino-2-(4-fluorophenyl)-7-(4-(2-phenoxyacetyl)-piperazin-1-yl)-thiazolo[5,4-d]pyrimidine] | 350 nM
CSc1nc2c(N3CCN(C(=O)COc4ccc(Cl)cc4)CC3)nc(N)nc2n1C [Example 428, 1-(4-(2-amino-9-methyl-8-(methylthio)-9H-purin-6-yl)piperazin-1-yl)-2-(4-chlorophenoxy)ethanone] | 300 nM
Nc1nc(N2CCN(CCOc3ccccc3)CC2)c2cc(-c3ccccc3)sc2n1 [Example 337, 4-(4-(2-phenoxyethyl)piperazin-1-yl)-6-phenylthieno[2,3-d]pyrimidin-2-amine] | 9640 nM

SMILES | IC50
COc1ccc(OCC(=O)N2CCN(c3nc(N)nc4sc(-c5ccccc5)nc34)CC2)cc1 [Example 208, 1-(4-(5-amino-2-phenylthiazolo[5,4-d]pyrimidin-7-yl)piperazin-1-yl)-2-(4-methoxyphenoxy)ethanone] | 42 nM
Nc1nc(N2CCN(C(=O)COc3ccc(Cl)cc3)CC2)c2nc(CCc3ccc(F)cc3)oc2n1 [Example 172, 1-(4-(5-amino-2-(4-fluorophenethyl)oxazolo[5,4-d]pyrimidin-7-yl)piperazin-1-yl)-2-(4-chlorophenoxy)ethanone] | 800 nM
Nc1nc(N2CCN(C(=O)COc3ccc(OC(F)(F)F)cc3)CC2)c2nc(CCc3ccc(F)cc3)sc2n1 [Example 226, 1-(4-(5-amino-2-(4-fluorophenethyl)thiazolo[5,4-d]pyrimidin-7-yl)piperazin-1-yl)-2-(4-(trifluoromethoxy)phenoxy)ethanone] | 7120 nM
O=C(COc1ccc(Cl)cc1)N1CCN(c2ncnc3sc(CCc4ccc(F)cc4)nc23)CC1 [Example 303, 1-(4-(2-(4-fluorophenethyl)thiazolo[5,4-d]pyrimidin-7-yl)piperazin-1-yl)-2-(4-chlorophenoxy)ethanone] | 5590 nM
NC(=O)c1nc(N2CCN(C(=O)COc3ccc(Cl)cc3)CC2)c2cc(-c3ccc(F)cc3)sc2n1 [Example 355, 4-(4-(2-(4-chlorophenoxy)acetyl)piperazin-1-yl)-6-(4-fluorophenyl)thieno[2,3-d]pyrimidine-2-carboxamide] | > 10000 nM
Nc1nc(N2CCN(C(=O)COc3ccc(Cl)cc3)CC2)c2nc(-c3cccc(Cl)c3)[nH]c2n1 [Example 393, 1-(4-(2-amino-8-(3-chlorophenyl)-9H-purin-6-yl)piperazin-1-yl)-2-(4-chlorophenoxy)ethanone] | 660 nM
Cc1ccc(-c2nc3c(N4CCN(C(=O)COc5ccc(Cl)cc5)CC4)nc(N)nc3[nH]2)cc1 [Example 396, 1-(4-(2-amino-8-p-tolyl-9H-purin-6-yl)piperazin-1-yl)-2-(4-chlorophenoxy)ethanone] | 470 nM
COc1ccc(OCC(=O)N2CCN(c3nc(N)nc4sc(CCc5ccc(C)cc5)nc34)CC2)cc1 [Example 259, 1-(4-(5-amino-2-(4-methylphenethyl)thiazolo[5,4-d]pyrimidin-7-yl)piperazin-1-yl)-2-(4-methoxyphenoxy)ethanone] | 960 nM
Nc1nc(N2CCN(C(=O)c3ccc(Cl)cc3)CC2)c2nc(-c3ccc(F)cc3)[nH]c2n1 [Example 404, (4-(2-amino-8-(4-fluorophenyl)-9H-purin-6-yl)piperazin-1-yl)(4-chlorophenyl)methanone] | > 10000 nM
Cc1cccc(OCC(=O)N2CCN(c3nc(N)nc4sc(-c5ccccc5)cc34)CC2)c1 [Example 371, 1-(4-(2-amino-6-phenylthieno[2,3-d]pyrimidin-4-yl)piperazin-1-yl)-2-(m-tolyloxy)ethanone] | 210 nM
CCCCCc1nc2c(N3CCN(C(=O)COc4ccc(OC)cc4)CC3)nc(N)nc2s1 [Example 296, 1-(4-(5-amino-2-pentylthiazolo[5,4-d]pyrimidin-7-yl)piperazin-1-yl)-2-(4-methoxyphenoxy)ethanone] | 7590 nM
Cc1ccc(-c2nc3c(N4CCN(C(=O)COc5ccc(Cl)cc5)CC4)nc(N)nc3s2)cc1 [Example 295, 1-(4-(5-amino-2-p-tolylthiazolo[5,4-d]pyrimidin-7-yl)piperazin-1-yl)-2-(4-chlorophenoxy)ethanone] | 350 nM
COc1cccc(CCc2nc3c(N4CCN(C(=O)COc5ccc(Cl)cc5)CC4)nc(N)nc3s2)c1 [Example 255, 1-(4-(5-amino-2-(3-methoxyphenethyl)thiazolo[5,4-d]pyrimidin-7-yl)piperazin-1-yl)-2-(4-chlorophenoxy)ethanone] | 710 nM
CCCCCc1nc2c(N3CCN(C(=O)COc4ccc(Cl)cc4)CC3)nc(N)nc2o1 [Example 188, 5-amino-7-[4-(4-chlorophenoxyacetyl)piperazin-1-yl]-2-pentyloxazolo[5,4-d]pyrimidine] | 4430 nM
COC(=O)c1ccc(OCC(=O)N2CCN(c3nc(N)nc4sc(CCc5ccc(F)cc5)nc34)CC2)cc1 [Example 225, methyl 4-(2-(4-(5-amino-2-(4-fluorophenethyl)thiazolo[5,4-d]pyrimidin-7-yl)piperazin-1-yl)-2-oxoethoxy)benzoate] | > 10000 nM
Nc1nc(N2CCN(Cc3ccc(F)cc3)CC2)c2nc(-c3ccc(F)cc3)[nH]c2n1 [Example 418, 6-(4-(4-fluorobenzyl)piperazin-1-yl)-8-(4-fluorophenyl)-9H-purin-2-amine] | 9860 nM
